Laboratory results from US20130295666A1, “CRYSTALS OF GLUCOKINASE REGULATORY PROTEIN (GKRP)” (Boehringer Ingelheim International GmbH, priority 2011, published 2013).
Residue numbers refer to the chain shown, from its start. Numbers in names are those of the source.

What was measured:
[1] = target: T1, hGKRP_C-His (Homo sapiens, UniProt Q14397); assay: amide hydrogen (H/D) exchange, ligand-bound vs apo-GKRP; format: binding; conditions: 30 min H/D exchange; six regions; compared to apo-GKRP
T1 construct: made in house; host or cells: High FIVE insect cells (baculovirus, BAC-to-BAC)
T1 sequence (Q14397 with tags, fused parts or gaps): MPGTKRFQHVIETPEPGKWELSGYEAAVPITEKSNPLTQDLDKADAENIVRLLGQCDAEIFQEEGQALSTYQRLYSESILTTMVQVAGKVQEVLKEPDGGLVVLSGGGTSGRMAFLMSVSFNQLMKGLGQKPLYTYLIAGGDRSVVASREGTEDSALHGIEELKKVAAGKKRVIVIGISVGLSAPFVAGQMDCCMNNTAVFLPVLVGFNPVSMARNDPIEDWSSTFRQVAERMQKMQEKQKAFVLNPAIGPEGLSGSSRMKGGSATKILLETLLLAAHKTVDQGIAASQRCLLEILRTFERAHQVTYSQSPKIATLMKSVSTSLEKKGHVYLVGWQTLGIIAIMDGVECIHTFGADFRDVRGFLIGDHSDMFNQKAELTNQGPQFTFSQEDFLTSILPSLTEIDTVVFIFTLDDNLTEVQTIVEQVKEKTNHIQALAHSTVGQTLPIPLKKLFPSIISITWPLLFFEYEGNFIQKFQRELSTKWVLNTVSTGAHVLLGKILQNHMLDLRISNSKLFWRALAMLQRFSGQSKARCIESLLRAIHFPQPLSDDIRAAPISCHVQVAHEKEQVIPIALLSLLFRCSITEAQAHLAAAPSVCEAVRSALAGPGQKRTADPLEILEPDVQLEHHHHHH
Method: This experiment was performed to map the potential ligand binding sites via the amide hydrogen exchange behaviour of apo-GKRP in comparison to ligand-bound GKRP.
Amide hydrogen (H/D) exchange was initiated by a 20-fold dilution of 30 pmol hGKRP_C-His with or without ligand into D2O containing 100 mM HEPES, pD 7.4, 200 mM KCl, 100 mM MgCl2, and 2 mM DTT and incubated at room temperature.
After various time points (10 sec, 1 min and 30 min), the exchange reaction was quenched by decreasing the temperature to 0° C. and the pH to 2.5 with quench buffer (500 mM KH2PO4/H3PO4, pH 2.5, 2 M Urea, and 2 mM TCEP). Quenched samples were directly injected into an HPLC setup and analyzed on an electrospray ionization-quadrupole time of flight-mass spectrometer (QSTAR XL, Applied Biosystems) as described by Rist et al. (2003): Mapping temperature-induced conformational changes in the Escherichia coli heat shock transcription factor sigma 32 by amide hydrogen exchange, J. Biol. Chem., 278, 51415-51421.
The HPLC setup contained a column (2×20 mm) packed with Poroszyme immobilized pepsin (Applied Biosystems, Darmstadt, Germany). […] The deuterium content of the peptides was calculated by using the average mass difference between the isotopic envelopes of the deuterated and the undeuterated peptides. […]

[2] = target: T2, rat GKRP (Rattus norvegicus, UniProt Q07071); conditions: Van Schaftingen 1989, Veiga-da-Cunha and Van Schaftingen 2002; cited from earlier work
T2 sequence (Q07071 1-627): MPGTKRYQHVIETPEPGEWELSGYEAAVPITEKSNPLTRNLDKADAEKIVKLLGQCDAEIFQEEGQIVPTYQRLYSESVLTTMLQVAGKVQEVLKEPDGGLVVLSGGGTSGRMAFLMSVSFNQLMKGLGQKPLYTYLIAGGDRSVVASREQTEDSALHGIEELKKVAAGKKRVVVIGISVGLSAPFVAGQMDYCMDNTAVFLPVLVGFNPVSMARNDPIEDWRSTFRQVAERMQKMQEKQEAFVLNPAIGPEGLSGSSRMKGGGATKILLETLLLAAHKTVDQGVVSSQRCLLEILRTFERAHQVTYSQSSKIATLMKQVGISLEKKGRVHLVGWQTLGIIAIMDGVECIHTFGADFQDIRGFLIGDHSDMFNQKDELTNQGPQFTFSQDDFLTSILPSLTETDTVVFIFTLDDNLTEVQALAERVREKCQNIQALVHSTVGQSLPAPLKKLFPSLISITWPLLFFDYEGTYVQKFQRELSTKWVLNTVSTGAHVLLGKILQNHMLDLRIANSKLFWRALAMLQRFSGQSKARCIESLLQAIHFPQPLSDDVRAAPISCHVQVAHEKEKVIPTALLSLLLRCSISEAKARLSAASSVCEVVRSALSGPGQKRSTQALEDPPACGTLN

[3] = target: T1, hGKRP_C-His; assay: F1P competition with F6P in the coupled GK assay, using hGKRP_C-His; format: biochemical; conditions: in the presence of 6 μM F6P, read-out: EC50 of F1P to increase apparent GK activity (inactive GK-GKRP-F6P complex towards free GK)
Source text: (§1) GKRP preparations according to examples 1 and 2 have been examined with respect to their enzymatic activity. The applied enzymatic assay measures the effect of GKRP on glucokinase activity in the form of a glucose-6-phosphate dehydrogenase coupled assay at room temperature which is a modification of the method described by Van Schaftingen and Brocklehurst et al. (Van Schaftingen, E. (1989): A protein from rat liver confers to glucokinase the property of being antagonistically regulated by fructose 6-phosphate and fructose 1-phosphate; Eur. J. Biochem., 179, 179-184; Brocklehurst, K. J., Davies, R. A. and Agius, L. (2004): Differences in regulatory properties between human and rat glucokinase regulatory protein; Biochem. J., 378, 693-697).
(§2) The reaction mixture contained 150 mM KCl, 100 mM Hepes, 1 mM ATP, 1 mM MgCl2, 2 mM NADP^+, 2 mM dithiothreitol, pH 7.4, 5 units/ml glucose-6-phosphate dehydrogenase, 0.5 mg/ml BSA, 10 mM glucose, 6 μM fructose 6-P, 15 nM human liver glucokinase and 100 nM of the respective GKRP. The enzymatic reaction was started by the addition of ATP and glucose. The increase in optical density was measured at a wavelength 340 nm over 10 minutes. From these kinetic data, the slope was calculated and graphically depicted.
(§3) This effect was investigated using both hGKRP_C-His as well as hGKRP_C-His_K326T/K327T. […]

[4] = target: T3, hGKRP_C-His_K326T/K327T (Homo sapiens, UniProt Q14397, K326T/K327T); assay: F1P competition with F6P in the coupled GK assay, using hGKRP_C-His_K326T/K327T; format: biochemical; conditions: in the presence of 6 μM F6P, read-out: EC50 of F1P to increase apparent GK activity (inactive GK-GKRP-F6P complex towards free GK)
T3 construct: made in house; host or cells: High FIVE insect cells (baculovirus, BAC-to-BAC)
T3 sequence (Q14397 with tags, fused parts or gaps K326T/K327T): T1 sequence (Q14397 with tags, fused parts or gaps) with K326T, K327T
Source text: as §1, §2, §3

[5] = target: T4, human liver glucokinase (human, UniProt P35557-2 1-466, limits assumed); assay: cell-based or functional assay
T4 sequence (looked up): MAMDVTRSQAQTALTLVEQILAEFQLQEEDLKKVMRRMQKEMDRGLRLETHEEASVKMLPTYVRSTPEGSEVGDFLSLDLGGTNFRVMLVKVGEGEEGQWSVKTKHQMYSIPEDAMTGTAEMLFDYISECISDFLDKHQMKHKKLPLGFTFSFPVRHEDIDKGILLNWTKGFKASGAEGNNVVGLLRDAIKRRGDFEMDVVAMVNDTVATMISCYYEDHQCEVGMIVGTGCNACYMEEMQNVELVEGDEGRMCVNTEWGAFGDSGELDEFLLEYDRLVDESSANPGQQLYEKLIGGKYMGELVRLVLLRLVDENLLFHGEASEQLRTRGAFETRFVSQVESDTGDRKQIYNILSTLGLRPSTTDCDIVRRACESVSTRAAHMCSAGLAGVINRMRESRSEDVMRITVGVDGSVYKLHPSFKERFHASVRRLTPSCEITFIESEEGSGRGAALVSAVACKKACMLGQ

[6] = system: human liver glucokinase; assay: glucose-6-phosphate dehydrogenase coupled assay measuring the effect of GKRP on glucokinase activity; format: biochemical; conditions: GKRP dosed in excess over GK (15 nM), alone
Source text: as §1, §2

## O=C(CO)[C@@H](O)[C@H](O)[C@H](O)COP(=O)(O)O [F6P, fructose-6-phosphate]
[1]
  protection of GKRP regions against H/D exchange by the ligand: protection against H/D exchange
[2]
  Kd: 20000 nM

## O=C(COP(=O)(O)O)[C@@H](O)[C@H](O)[C@H](O)CO [F1P, fructose-1-phosphate]
[3]
  EC50: 6280 ± 1070 nM
[4]
  EC50: 5080 ± 1380 nM
[1]
  protection of GKRP regions against H/D exchange by the ligand: protection against H/D exchange
[2]
  Kd: 1000 nM

B1: hGKRP_C-His (human glucokinase regulatory protein with C-terminal LEHHHHHH octapeptide) (other)
chain: T1 sequence (Q14397 with tags, fused parts or gaps)
[5]
  IC50 of inhibition of GK activity in the presence of 6 µM fructose 6-phosphate: 74 nM
  IC50 of inhibition of apparent GK enzymatic activity (glucose-6-phosphate dehydrogenase coupled assay), GKRP alone: 124 nM
[6]
  inhibition of the apparent GK enzymatic activity: > 90%

B2: hGKRP_C-His_K326T/K327T (other)
chain: T1 sequence (Q14397 with tags, fused parts or gaps) with K326T, K327T
[5]
  IC50 of decrease of apparent GK activity in the presence of 6 µM F6P: 71 nM
  IC50 of decrease of apparent GK activity, GKRP alone: 116 nM
